Test results from patent US11912710B2 (UPPTHERA, INC., priority 2021, dated 2024).

Key:
Assay type in all cases: cell-based
[1] = biological target: T1, PLK1 (Homo sapiens, UniProt P53350); experiment: Luciferase assay for PLK1 in HeLa LgBit (Plk1-HiBit KI) cell line; details: 300 nM compound, luminescence after 9 hours, read-out: Activity: ratio of the luminescense value of compound treatment group to DMSO treatment group
T1 construct: endogenous in cells; host or cells: HeLa LgBit (Plk1-HiBit KI): HeLa cells stably expressing LgBit, with HiBit knocked into the endogenous Plk1 locus by CRISPR/Cas9
Method: 2. Luciferase Assay for PLK1
(1) Preparation and Culture of HeLa LgBit (Plk1-HiBit KI) Cell Line
A HeLa cell line in which the LgBit vector was transfected and expressed stably was prepared. Then, after constructing gRNA and donor to express the HiBit amino acid sequence behind the C-terminal of the Plk1 gene, which was inherent in the cell, it was inserted into the cell together with a vector capable of expressing CRISPR/Cas9. Only the cells in which the insertion was completed and knock-in had progressed were selected, sub-cultured and used.
(2) Treatment of Compounds of the Present Invention and Method of Luciferase Assay
In the case of HeLa LgBit (Plk1-HiBit KI), the compounds were treated after being released after thymidine block, and the process was as follows. Thymidine (Sigma-Aldrich Cat. No. T9250-5G) was completely dissolved in DW and used in the experiment. For thymidine block, the products were treated with 2 mM of thymidine and then incubated for 24 hours. For release and chemical treatment, the medium was suctioned and washed with 1×PBS. TrypLE™ was added and incubated in 37° C. CO2 incubator for 5 min. Cells neutralized by adding complete media were counted through a counter. For each well of a 96-well culture plate (SPL), 3.3×10^4 cells and a total medium volume of 150 μL were seeded and incubated in a CO2 incubator.
Each cell line was incubated in a CO2 incubator for 18 hours, and Endurazine was added to each well to make up 4% of the total volume. After adding the compound of the present invention in a 96-well white plate (SPL) to a concentration of 300 nM, the wavelength of the plate reader (BMG Labtech, CLARIOstar Plus) was set to […], and then the luminescence was tracked in real time.
In Table 2, Activity represents the ratio of the luminescense value of each Exemplary Compound treatment group to DMSO treatment group (+++: <0.3, ++<0.6, +<0.7).

[2] = test system: MRC-5 cell line; experiment: Cell viability assay (cytotoxicity) for MRC-5 cell line; details: Homo sapiens, MRC5, 120 h; MRC-5 normal cell line, 5 days, EZ-Cytox, 10000 nM to 1.52 nM; read-out: Activity: IC50 value to MRC-5 cell line (Exemplary Compounds)
Method: 4. Cell Viability Assay for MRC-5 Cell Line
(1) Culture of MRC-5 Cell Line
Passage of cultured cells was maintained within P15.
(2) Treatment of Compounds of the Present Invention
Then, it was cultured in 37° C.
(3) Cytotoxicity Experiment
CO2 incubator for 4 hours.
Cell Viability Assay for MRC-5 cell line

[3] = test system: NCI-H526 cell line; experiment: Cell viability assay for H526 cell line; details: Homo sapiens, NCI-H526, 120 h; H526 cells, 5 days, EZ-Cytox, 3000 nM to 0.46 nM
Method: 3. Cell Viability Assay for H526 Cell Line
(1) Culture of NCI-H526 Cell Line
(2) Treatment of Compounds of the Present Invention and Method of Cell Viability Assay
After treating the compound to each well to make the total volume of 200 μL, it was cultured in a CO2 incubator (Thermo Fisher Science, Cat. No. 4111) for 5 days.
The absorbance of the completely cultured sample was measured by setting the wavelength of a plate reader (BMG Labtech, CLARIOstar Plus) to […], and was measured after shaking for 3 minutes in a plate reader before measurement.
In Table 3, Activity represents IC50 value of each Exemplary Compound treatment group to H526 cell line (A: <30 nM, B: <50 nM, C: <100 nM, D: <200 nM, E: <400 nM).

T1 sequence (P53350 whole entry): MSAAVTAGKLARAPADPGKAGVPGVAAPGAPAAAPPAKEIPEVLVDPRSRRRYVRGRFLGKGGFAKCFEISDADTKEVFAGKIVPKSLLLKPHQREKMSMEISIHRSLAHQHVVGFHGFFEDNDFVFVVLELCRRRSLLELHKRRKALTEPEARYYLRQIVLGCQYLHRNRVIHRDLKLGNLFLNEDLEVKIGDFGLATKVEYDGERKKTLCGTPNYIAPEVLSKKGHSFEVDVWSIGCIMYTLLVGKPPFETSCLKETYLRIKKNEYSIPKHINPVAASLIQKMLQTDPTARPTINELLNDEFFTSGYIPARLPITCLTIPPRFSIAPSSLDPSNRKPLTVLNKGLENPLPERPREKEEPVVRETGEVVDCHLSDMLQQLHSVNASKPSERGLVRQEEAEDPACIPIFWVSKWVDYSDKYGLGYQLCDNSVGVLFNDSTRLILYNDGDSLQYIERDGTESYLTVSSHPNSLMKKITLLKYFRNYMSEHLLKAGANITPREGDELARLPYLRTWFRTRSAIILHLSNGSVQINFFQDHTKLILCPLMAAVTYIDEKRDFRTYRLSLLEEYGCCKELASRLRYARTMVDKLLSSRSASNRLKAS

Structure (SMILES) | remaining activity at 0.3 µM [1] [%] | IC50 [2] [µM] | IC50 [3] [µM]
COc1cc(C(=O)NC2CC3(CCN(CC4CCN(c5ccc(C6CCC(=O)NC6=O)cc5F)CC4)CC3)C2)ccc1Nc1ncc2c(n1)N(C1CCCC1)CC(F)(F)C(=O)N2C (stereo not drawn) [Compound 15, 4-((9-cyclopentyl-7,7-difluoro-5-methyl-6-oxo-6,7,8,9-tetrahydro-5H-pyrimido[4,5-b][1,4]diazepin-2-yl)amino)-N-(7-((1-(4-(2,6-dioxopiperidin-3-yl)-2-fluorophenyl)piperidin-4-yl)methyl)-7-azaspiro[3.5]nonan-2-yl)-3-methoxybenzamide] | < 30 | > 10 | < 0.03
COc1cc(C(=O)NN2CCC([C@@H](C)CN3CCN(c4ccc(C5CCC(=O)NC5=O)cc4F)CC3)CC2)ccc1Nc1ncc2c(n1)N(C1CCCC1)CC(F)(F)C(=O)N2C (stereo partly drawn) [Compound 19, 4-((9-cyclopentyl-7,7-difluoro-5-methyl-6-oxo-6,7,8,9-tetrahydro-5H-pyrimido[4,5-b][1,4]diazepin-2-yl)amino)-N-(4-((2R)-1-(4-(4-(2,6-dioxopiperidin-3-yl)-2-fluorophenyl)piperazin-1-yl)propan-2-yl)piperidin-1-yl)-3-methoxybenzamide] | < 30 | > 10 | < 0.03
COc1cc(C(=O)NC2CC3(CCN(CC4CCN(c5ccc(C6CCC(=O)NC6=O)cc5C)CC4)CC3)C2)ccc1Nc1ncc2c(n1)N(C1CCCC1)CC(F)(F)C(=O)N2C (stereo not drawn) [Compound 25, 4-((9-cyclopentyl-7,7-difluoro-5-methyl-6-oxo-6,7,8,9-tetrahydro-5H-pyrimido[4,5-b][1,4]diazepin-2-yl)amino)-N-(7-((1-(4-(2,6-dioxopiperidin-3-yl)-2-methylphenyl)piperidin-4-yl)methyl)-7-azaspiro[3.5]nonan-2-yl)-3-methoxybenzamide] | < 30 | > 10 | < 0.03
COc1cc(C(=O)NC2CC3(CCN(CC4CCN(c5ccc(C6CCC(=O)NC6=O)cc5F)CC4C)CC3)C2)ccc1Nc1ncc2c(n1)N(C1CCCC1)CC(F)(F)C(=O)N2C (stereo not drawn) [Compound 27, 4-((9-cyclopentyl-7,7-difluoro-5-methyl-6-oxo-6,7,8,9-tetrahydro-5H-pyrimido[4,5-b][1,4]diazepin-2-yl)amino)-N-(7-((1-(4-(2,6-dioxopiperidin-3-yl)-2-fluorophenyl)-3-methylpiperidin-4-yl)methyl)-7-azaspiro[3.5]nonan-2-yl)-3-methoxybenzamide] | < 60 | > 10 | < 0.03
COc1cc(C(=O)NC2CCN(C(=O)CCN3CCN(c4cccc(C5CCC(=O)NC5=O)c4)CC3)CC2)ccc1Nc1ncc2c(n1)N(C1CCCC1)CC(F)(F)C(=O)N2C (stereo not drawn) [Compound 6, 4-((9-cyclopentyl-7,7-difluoro-5-methyl-6-oxo-6,7,8,9-tetrahydro-5H-pyrimido[4,5-b][1,4]diazepin-2-yl)amino)-N-(1-(3-(4-(3-(2,6-dioxopiperidin-3-yl)phenyl)piperazin-1-yl)propanoyl)piperidin-4-yl)-3-methoxybenzamide] | < 60 | > 10 | < 0.03
COc1cc(C(=O)NC2CCN(C(=O)CCN3CCN(c4ccc(N5CCC(=O)NC5=O)cc4)CC3)CC2)ccc1Nc1ncc2c(n1)N(C1CCCC1)CC(F)(F)C(=O)N2C [Compound 32, 4-((9-cyclopentyl-7,7-difluoro-5-methyl-6-oxo-6,7,8,9-tetrahydro-5H-pyrimido[4,5-b][1,4]diazepin-2-yl)amino)-N-(1-(3-(4-(4-(2,4-dioxotetrahydropyrimidin-1(2H)-yl)phenyl)piperazin-1-yl)propanoyl)piperidin-4-yl)-3-methoxybenzamide] | < 60 | > 10 | < 0.03
COc1cc(C(=O)NC2CCN(C(=O)CCCOc3cccc(C4CCC(=O)NC4=O)c3)CC2)ccc1Nc1ncc2c(n1)N(C1CCCC1)CC(F)(F)C(=O)N2C (stereo not drawn) [Compound 4, 4-((9-cyclopentyl-7,7-difluoro-5-methyl-6-oxo-6,7,8,9-tetrahydro-5H-pyrimido[4,5-b][1,4]diazepin-2-yl)amino)-N-(1-(4-(3-(2,6-dioxopiperidin-3-yl)phenoxy)butanoyl)piperidin-4-yl)-3-methoxybenzamide] | < 30 | > 10 | < 0.05
COc1cc(C(=O)NC2CCN(CC3CC4(CCN(c5ccc(C6CCC(=O)NC6=O)cc5F)CC4)C3)CC2)ccc1Nc1ncc2c(n1)N(C1CCCC1)CC(F)(F)C(=O)N2C (stereo not drawn) [Compound 21, 4-((9-cyclopentyl-7,7-difluoro-5-methyl-6-oxo-6,7,8,9-tetrahydro-5H-pyrimido[4,5-b][1,4]diazepin-2-yl)amino)-N-(1-((7-(4-(2,6-dioxopiperidin-3-yl)-2-fluorophenyl)-7-azaspiro[3.5]nonan-2-yl)methyl)piperidin-4-yl)-3-methoxybenzamide] | < 30 | > 10 | < 0.05
COc1cc(C(=O)NC2CCCN(C(=O)CCN3CCN(c4ccc(C5CCC(=O)NC5=O)cc4F)CC3)C2)ccc1Nc1ncc2c(n1)N(C1CCCC1)CC(F)(F)C(=O)N2C (stereo not drawn) [Compound 14, 4-((9-cyclopentyl-7,7-difluoro-5-methyl-6-oxo-6,7,8,9-tetrahydro-5H-pyrimido[4,5-b][1,4]diazepin-2-yl)amino)-N-(1-(3-(4-(4-(2,6-dioxopiperidin-3-yl)-2-fluorophenyl)piperazin-1-yl)propanoyl)piperidin-3-yl)-3-methoxybenzamide] | < 60 | > 10 | < 0.1
COc1cc(C(=O)NN2CCC(CCN3CCN(c4ccc(C5CCC(=O)NC5=O)cc4F)CC3)CC2)ccc1Nc1ncc2c(n1)N(C1CCCC1)CC(F)(F)C(=O)N2C (stereo not drawn) [Compound 12, 4-((9-cyclopentyl-7,7-difluoro-5-methyl-6-oxo-6,7,8,9-tetrahydro-5H-pyrimido[4,5-b][1,4]diazepin-2-yl)amino)-N-(4-(2-(4-(4-(2,6-dioxopiperidin-3-yl)-2-fluorophenyl)piperazin-1-yl)ethyl)piperidin-1-yl)-3-methoxybenzamide] | < 30 | 20 | < 0.03
COc1cc(C(=O)NC2CCN(C(=O)CCN3CCN(c4cccc(C5CCC(=O)NC5=O)n4)CC3)CC2)ccc1Nc1ncc2c(n1)N(C1CCCC1)CC(F)(F)C(=O)N2C (stereo not drawn) [Compound 36, 4-((9-cyclopentyl-7,7-difluoro-5-methyl-6-oxo-6,7,8,9-tetrahydro-5H-pyrimido[4,5-b][1,4]diazepin-2-yl)amino)-N-(1-(3-(4-(6-(2,6-dioxopiperidin-3-yl)pyridin-2-yl)piperazin-1-yl)propanoyl)piperidin-4-yl)-3-methoxybenzamide] | < 60 | > 10 | < 0.03
COc1cc(C(=O)NC2CC3(CCN(CCC4CCN(c5ccc(C6CCC(=O)NC6=O)cc5F)CC4)CC3)C2)ccc1Nc1ncc2c(n1)N(C1CCCC1)CC(F)(F)C(=O)N2C (stereo not drawn) [Compound 45, 4-((9-cyclopentyl-7,7-difluoro-5-methyl-6-oxo-6,7,8,9-tetrahydro-5H-pyrimido[4,5-b][1,4]diazepin-2-yl)amino)-N-(7-(2-(1-(4-(2,6-dioxopiperidin-3-yl)-2-fluorophenyl)piperidin-4-yl)ethyl)-7-azaspiro[3.5]nonan-2-yl)-3-methoxybenzamide] | < 60 | 8.68 | < 0.03
